Test results: patent US12486269B2 (Aconcagua Bio, Inc., priority 2024, dated 2025)
pEC50: −log10 of the molar value.

Key:
[1] = molecular target: T1, COS-7/AMY3 (human calcitonin receptor (CTR) and RAMP3) (Homo sapiens, UniProt O60896+P30988); test: Amylin Receptor cAMP Assay II; assay type: cell-based; conditions: values marked **: Amylin Receptor cAMP Assay II; COS-7/AMY3 cells, cAMP dynamic 2 kit, 30 min; read-out: Amylin Receptor cAMP Stimulation Activity: EC50
T1 construct: expressed in transfected cells; host or cells: COS-7
Procedure, shortened: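 COS-7 cells stably co-expressing human CTR and RAMP3 (AMY3), 2000 cells/well in HBSS with 20 mM HEPES, 0.5 mM IBMX, 0.1% casein, stimulated with compound for 30 min at 37 °C. cAMP measured by HTRF (665/615 nm), activity normalized between vehicle and maximal control.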

[2] = molecular target: T2, human calcitonin receptor (CTR) (Homo sapiens, UniProt P30988); test: Calcitonin Receptor (CTR) cAMP Assay; assay type: cell-based; conditions: COS7-human CTR Clone #2 stable cell line, cAMP dynamic 2 kit, 30 min; read-out: Calcitonin Receptor cAMP Stimulation Activity: EC50
T2 construct: expressed in transfected cells; host or cells: COS-7 (COS7-human CTR Clone #2)
T2 sequence (P30988 25-474): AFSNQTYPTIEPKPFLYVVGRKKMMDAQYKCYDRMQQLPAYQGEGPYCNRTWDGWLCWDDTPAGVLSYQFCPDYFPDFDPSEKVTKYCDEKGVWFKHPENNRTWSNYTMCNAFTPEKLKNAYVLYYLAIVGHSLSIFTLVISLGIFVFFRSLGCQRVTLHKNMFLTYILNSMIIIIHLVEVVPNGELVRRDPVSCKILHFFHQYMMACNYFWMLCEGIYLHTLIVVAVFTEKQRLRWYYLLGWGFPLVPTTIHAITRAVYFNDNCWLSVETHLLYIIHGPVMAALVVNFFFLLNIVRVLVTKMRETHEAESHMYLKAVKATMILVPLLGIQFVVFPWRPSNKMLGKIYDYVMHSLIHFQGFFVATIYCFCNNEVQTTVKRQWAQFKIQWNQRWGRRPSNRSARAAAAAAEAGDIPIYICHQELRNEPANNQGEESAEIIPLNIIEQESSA
Procedure, shortened: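 COS-7 cells stably expressing human CTR (2000 cells/well) were incubated 30 min at 37 °C with 4-fold serially diluted compound in HBSS/20 mM HEPES/0.5 mM IBMX/0.1% casein. cAMP was detected by HTRF (665/615 nm) after 1 h at RT. % activity was normalised to vehicle and positive controls.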

T1 sequence (O60896 24-148, one chain of several): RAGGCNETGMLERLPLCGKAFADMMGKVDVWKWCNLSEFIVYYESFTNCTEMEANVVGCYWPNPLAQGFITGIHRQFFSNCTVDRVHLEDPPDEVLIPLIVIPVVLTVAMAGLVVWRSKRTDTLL

SMILES	pEC50 [1]	pEC50 [2]
O=C1c2c(nc(CCC34CCC(CC3)OC4)c(-c3n[nH]c(=O)o3)c2-c2cnc3c(ccn3Cc3ccc(F)cn3)c2)[C@@H]2CCCN12 [Compound 232, (S)-5-(2-(2-(2-oxabicyclo[2.2.2]octan-4-yl)ethyl)-4-(1-((5-fluoropyridin-2-yl)methyl)-1H-pyrrolo[2,3-b]pyridin-5-yl)-5-oxo-7,8,9,9a-tetrahydro-5H-pyrido[2,3-a]pyrrolizin-3-yl)-1,3,4-oxadiazol-2(3H)-one]	4.92	6.39
O=C1c2c(nc(CCC34CCC(CC3)OC4)c(-c3n[nH]c(=O)o3)c2-c2cnc3c(ccn3Cc3ncc(Cl)cc3F)c2)[C@@H]2CCCN12 [Compound 233, (S)-5-(2-(2-(2-oxabicyclo[2.2.2]octan-4-yl)ethyl)-4-(1-((5-chloro-3-fluoropyridin-2-yl)methyl)-1H-pyrrolo[2,3-b]pyridin-5-yl)-5-oxo-7,8,9,9a-tetrahydro-5H-pyrido[2,3-a]pyrrolizin-3-yl)-1,3,4-oxadiazol-2(3H)-one]	5.74	7.44
COc1cccc2c1CC[C@H]2Nc1nccc2cc(-c3c4c(nc(CCc5ccc(F)cc5)c3-c3n[nH]c(=O)o3)[C@H]3COCCN3C4=O)sc12 [Compound 234, (S)-2-(4-fluorophenethyl)-4-(7-(((R)-4-methoxy-2,3-dihydro-1H-inden-1-yl)amino)thieno[2,3-c]pyridin-2-yl)-3-(5-oxo-4,5-dihydro-1,3,4-oxadiazol-2-yl)-7,8,10,10a-tetrahydro-5H-pyrido[2′,3′:3,4]pyrrolo[2,1-c][1,4]oxazin-5-one]	7.32	8.74
COc1cccc2c1CC[C@H]2Nc1nccc2cc(-c3c4c(nc(CCc5ccc(F)cc5)c3-c3n[nH]c(=O)o3)[C@@H]3COCCN3C4=O)sc12 [Compound 235, (R)-2-(4-fluorophenethyl)-4-(7-(((R)-4-methoxy-2,3-dihydro-1H-inden-1-yl)amino)thieno[2,3-c]pyridin-2-yl)-3-(5-oxo-4,5-dihydro-1,3,4-oxadiazol-2-yl)-7,8,10,10a-tetrahydro-5H-pyrido[2′,3′:3,4]pyrrolo[2,1-c][1,4]oxazin-5-one]	7.74	9.63
COc1cccc2c1CC[C@H]2Nc1nccc2cc(-c3c(-c4n[nH]c(=O)o4)c(CCc4ccc(F)cc4)nc4c3S(=O)(=O)C[C@@H]4C(C)C)sc12 [Compound 236, 5-((R)-5-(4-fluorophenethyl)-3-isopropyl-7-(7-(((R)-4-methoxy-2,3-dihydro-1H-inden-1-yl)amino)thieno[2,3-c]pyridin-2-yl)-1,1-dioxido-2,3-dihydrothieno[3,2-b]pyridin-6-yl)-1,3,4-oxadiazol-2(3H)-one]	6.89	6.75
COc1cccc2c1CC[C@H]2Nc1nccc2cc(-c3c(-c4n[nH]c(=O)o4)c(CCc4ccc(F)cc4)nc4c3S(=O)(=O)C[C@H]4C(C)C)sc12 [Compound 237, 5-((S)-5-(4-fluorophenethyl)-3-isopropyl-7-(7-(((R)-4-methoxy-2,3-dihydro-1H-inden-1-yl)amino)thieno[2,3-c]pyridin-2-yl)-1,1-dioxido-2,3-dihydrothieno[3,2-b]pyridin-6-yl)-1,3,4-oxadiazol-2(3H)-one]	7.73	9.23
N#Cc1ccc(Cn2c(=O)oc3cc(-c4c(-c5n[nH]c(=O)o5)c(CCc5ccc(F)cc5)nc5c4S(=O)(=O)CC54CC4)ccc32)nc1 [Compound 238, 6-((6-(5′-(4-fluorophenethyl)-1′,1′-dioxido-6′-(5-oxo-4,5-dihydro-1,3,4-oxadiazol-2-yl)-2′H-spiro[cyclopropane-1,3′-thieno[3,2-b]pyridin]-7′-yl)-2-oxobenzo[d]oxazol-3(2H)-yl)methyl)nicotinonitrile]	7.12	8.29
COc1cc(Cl)cc2c1CC[C@H]2Nc1nccc2cc(-c3c4c(nc(CCc5ccc(F)cc5)c3-c3n[nH]c(=O)o3)[C@@H]3CCCN3C4=O)sc12 [Compound 239, 5-((S)-4-(7-(((R)-6-chloro-4-methoxy-2,3-dihydro-1H-inden-1-yl)amino)thieno[2,3-c]pyridin-2-yl)-2-(4-fluorophenethyl)-5-oxo-7,8,9,9a-tetrahydro-5H-pyrido[2,3-a]pyrrolizin-3-yl)-1,3,4-oxadiazol-2(3H)-one]	7.63	9.01
COc1cccc2c1CC[C@H]2N1Cc2cc(-c3c4c(nc(CCc5ccc(F)cc5)c3-c3n[nH]c(=O)o3)C35CC(CN3C4=O)C5)ccc2C1=O [Compound 240, (R)-5-(2-(4-fluorophenethyl)-4-(2-(4-methoxy-2,3-dihydro-1H-inden-1-yl)-1-oxoisoindolin-5-yl)-5-oxo-8,9-dihydro-5H,7H-8,9a-methanopyrido[2,3-a]pyrrolizin-3-yl)-1,3,4-oxadiazol-2(3H)-one]	6.74	8.05
COc1cccc2c1CC[C@H]2Nc1nccc2cc(-c3c4c(nc(CCc5ccn6ccnc6c5)c3-c3n[nH]c(=O)o3)[C@@H]3CCCN3C4=O)sc12 [Compound 241, 5-((S)-2-(2-(imidazo[1,2-a]pyridin-7-yl)ethyl)-4-(7-(((R)-4-methoxy-2,3-dihydro-1H-inden-1-yl)amino)thieno[2,3-c]pyridin-2-yl)-5-oxo-7,8,9,9a-tetrahydro-5H-pyrido[2,3-a]pyrrolizin-3-yl)-1,3,4-oxadiazol-2(3H)-one]	7.47	8.76
COc1cccc2c1CC[C@H]2Nc1nccc2cc(-c3c4c(nc(CCc5ccc(Cl)cc5)c3-c3n[nH]c(=O)o3)[C@@H]3CCCN3C4=O)sc12 [Compound 242, 5-((S)-2-(4-chlorophenethyl)-4-(7-(((R)-4-methoxy-2,3-dihydro-1H-inden-1-yl)amino)thieno[2,3-c]pyridin-2-yl)-5-oxo-7,8,9,9a-tetrahydro-5H-pyrido[2,3-a]pyrrolizin-3-yl)-1,3,4-oxadiazol-2(3H)-one]	7.74	9.18
COc1cccc2c1CC[C@H]2Nc1nccc2cc(-c3c4c(nc(CCc5ccc(-n6cccn6)cc5)c3-c3n[nH]c(=O)o3)[C@@H]3CCCN3C4=O)sc12 [Compound 243, 5-((S)-2-(4-(1H-pyrazol-1-yl)phenethyl)-4-(7-(((R)-4-methoxy-2,3-dihydro-1H-inden-1-yl)amino)thieno[2,3-c]pyridin-2-yl)-5-oxo-7,8,9,9a-tetrahydro-5H-pyrido[2,3-a]pyrrolizin-3-yl)-1,3,4-oxadiazol-2(3H)-one]	7.95	8.93
COc1ccc(CCc2nc3c(c(-c4cc5ccnc(N[C@@H]6CCc7c(OC)cccc76)c5s4)c2-c2n[nH]c(=O)o2)C(=O)N2CCC[C@@H]32)cc1F [Compound 244, 5-((S)-2-(3-fluoro-4-methoxyphenethyl)-4-(7-(((R)-4-methoxy-2,3-dihydro-1H-inden-1-yl)amino)thieno[2,3-c]pyridin-2-yl)-5-oxo-7,8,9,9a-tetrahydro-5H-pyrido[2,3-a]pyrrolizin-3-yl)-1,3,4-oxadiazol-2(3H)-one]	7.64	8.94
COc1cccc2c1CC[C@H]2Nc1nccc2cc(-c3c4c(nc(CCc5cc(F)cs5)c3-c3n[nH]c(=O)o3)[C@@H]3CCCN3C4=O)sc12 [Compound 245, 5-((S)-2-(2-(4-fluorothiophen-2-yl)ethyl)-4-(7-(((R)-4-methoxy-2,3-dihydro-1H-inden-1-yl)amino)thieno[2,3-c]pyridin-2-yl)-5-oxo-7,8,9,9a-tetrahydro-5H-pyrido[2,3-a]pyrrolizin-3-yl)-1,3,4-oxadiazol-2(3H)-one]	7.72	9.33
O=C1c2c(nc(CCc3ccc(F)cc3)c(-c3n[nH]c(=O)o3)c2-c2cc3ccnc(N[C@@H]4CCc5ccc(F)cc54)c3s2)[C@@H]2CCCN12 [Compound 246, 5-((S)-4-(7-(((R)-6-fluoro-2,3-dihydro-1H-inden-1-yl)amino)thieno[2,3-c]pyridin-2-yl)-2-(4-fluorophenethyl)-5-oxo-7,8,9,9a-tetrahydro-5H-pyrido[2,3-a]pyrrolizin-3-yl)-1,3,4-oxadiazol-2(3H)-one]	8.17	9.66
O=C1c2c(nc(CCc3ccc(F)cc3)c(-c3n[nH]c(=O)o3)c2-c2cc3ccnc(N[C@@H]4CCc5nc(C(F)(F)F)ccc54)c3s2)[C@@H]2CCCN12 [Compound 247, 5-((S)-2-(4-fluorophenethyl)-5-oxo-4-(7-(((R)-2-(trifluoromethyl)-6,7-dihydro-5H-cyclopenta[b]pyridin-5-yl)amino)thieno[2,3-c]pyridin-2-yl)-7,8,9,9a-tetrahydro-5H-pyrido[2,3-a]pyrrolizin-3-yl)-1,3,4-oxadiazol-2(3H)-one]	5.62	7.68
